Test results as given in ChEMBL document CHEMBL3885861, “Open TG-GATES”.

Species: Rattus norvegicus
Test: Open TG-GATES - Regimen: Single
Format: toxicity, organism-based, Sprague-Dawley
Design: regimen Single, gender Male, age 6 weeks
Settings: in vivo, po, route gavage; for APTT / Bas / Eos / Fbg / Hb / Ht / Lym / MCH / MCHC / MCV / Mono / Neu / PT / Plat / RBC / Ret / WBC: tissue Blood; for KIDNEY_L / KIDNEY_R / KIDNEY_TOTAL: tissue Kidney; for LIVER: tissue Liver; for A/G / ALP / ALT / AST / BUN / CRE / Ca / Cl / DBIL / GLC / IP / K / LDH / Na / PL / RALB / TBIL / TC / TG / TP / gamma-GTP: tissue Plasma
[1] = 0 mg/kg, 3 h, dose level Control
[2] = 0 mg/kg, 6 h, dose level Control
[3] = 0 mg/kg, 9 h, dose level Control
[4] = 0 mg/kg, 24 h, dose level Control
[5] = 100 mg/kg, 24 h, dose level Low

## CCc1cc(C(N)=S)ccn1 [ETHIONAMIDE]
[1]
  TERMINAL_BW: 229.3 g
  APTT: 16.6 s
  Bas: 0%
  Eos: 1%
  Fbg: 213.4 mg/dL
  Hb: 14 g/dL
  Ht: 41.5%
  Lym: 80.2%
  MCH: 22.1 pg
  MCHC: 33.8%
  MCV: 65.5 fL
  Mono: 7.2%
  Neu: 11.6%
  PT: 11.7 s
  Plat: 118.5 x10_4/uL
  RBC: 635.2 x10_4/ul
  Ret: 7.7%
  WBC: 98.2 x10_2/uL
  KIDNEY_L: 1 g
  KIDNEY_R: 1.1 g
  KIDNEY_TOTAL: 2.1 g
  LIVER: 11.4 g
  A/G: 1.8
  ALP: 831 IU/L
  ALT: 31.8 IU/L
  AST: 64.6 IU/L
  BUN: 13.6 mg/dL
  CRE: 0.6 mg/dL
  Ca: 10.9 mg/dL
  Cl: 104.8 meq/L
  DBIL: 0.006 mg/dL
  GLC: 192.4 mg/dL
  IP: 8.2 mg/dL
  K: 4.6 meq/L
  LDH: 72.6 IU/L
  Na: 141 meq/L
  PL: 152.2 mg/dL
  RALB: 3.5 g/dL
  TBIL: 0.3 mg/dL
  TC: 82 mg/dL
  TG: 86.2 mg/dL
  TP: 5.4 g/dL
  gamma-GTP: 1 IU/L
[2]
  TERMINAL_BW: 223.7 g
  APTT: 18.2 s
  Bas: 0%
  Eos: 1%
  Fbg: 221.6 mg/dL
  Hb: 14.1 g/dL
  Ht: 41.9%
  Lym: 80.6%
  MCH: 21.8 pg
  MCHC: 33.5%
  MCV: 65.2 fL
  Mono: 7.6%
  Neu: 11.2%
  PT: 12.1 s
  Plat: 124.1 x10_4/uL
  RBC: 644 x10_4/ul
  Ret: 7.8%
  WBC: 114.3 x10_2/uL
  KIDNEY_L: 1 g
  KIDNEY_R: 1 g
  KIDNEY_TOTAL: 2 g
  LIVER: 10.5 g
  A/G: 1.6
  ALP: 729.4 IU/L
  ALT: 29.6 IU/L
  AST: 63.6 IU/L
  BUN: 12 mg/dL
  CRE: 0.5 mg/dL
  Ca: 11 mg/dL
  Cl: 104 meq/L
  DBIL: 0 mg/dL
  GLC: 187.6 mg/dL
  IP: 9.4 mg/dL
  K: 5 meq/L
  LDH: 87.8 IU/L
  Na: 139 meq/L
  PL: 150 mg/dL
  RALB: 3.3 g/dL
  TBIL: 0.4 mg/dL
  TC: 82.4 mg/dL
  TG: 86.6 mg/dL
  TP: 5.4 g/dL
  gamma-GTP: 1.2 IU/L
[3]
  TERMINAL_BW: 223.4 g
  APTT: 17.3 s
  Bas: 0%
  Eos: 1%
  Fbg: 213.8 mg/dL
  Hb: 13.9 g/dL
  Ht: 41%
  Lym: 71%
  MCH: 21.8 pg
  MCHC: 33.9%
  MCV: 64.3 fL
  Mono: 7%
  Neu: 21.4%
  PT: 12.1 s
  Plat: 115.1 x10_4/uL
  RBC: 639.6 x10_4/ul
  Ret: 7.9%
  WBC: 97.9 x10_2/uL
  KIDNEY_L: 1.1 g
  KIDNEY_R: 1 g
  KIDNEY_TOTAL: 2.1 g
  LIVER: 9.8 g
  A/G: 1.9
  ALP: 759.2 IU/L
  ALT: 31.2 IU/L
  AST: 59.2 IU/L
  BUN: 13.2 mg/dL
  CRE: 0.5 mg/dL
  Ca: 10.4 mg/dL
  Cl: 107 meq/L
  DBIL: 0.024 mg/dL
  GLC: 194.8 mg/dL
  IP: 10.2 mg/dL
  K: 4.7 meq/L
  LDH: 66.6 IU/L
  Na: 143.4 meq/L
  PL: 126.8 mg/dL
  RALB: 3.6 g/dL
  TBIL: 0.4 mg/dL
  TC: 65.8 mg/dL
  TG: 47.8 mg/dL
  TP: 5.4 g/dL
  gamma-GTP: 1.2 IU/L
[4]
  TERMINAL_BW: 237.2 g
  APTT: 16.3 s
  Bas: 0%
  Eos: 1.2%
  Fbg: 214.4 mg/dL
  Hb: 13.9 g/dL
  Ht: 41.1%
  Lym: 75.6%
  MCH: 21.8 pg
  MCHC: 33.7%
  MCV: 64.7 fL
  Mono: 7.6%
  Neu: 15.6%
  PT: 11.7 s
  Plat: 117.8 x10_4/uL
  RBC: 635.6 x10_4/ul
  Ret: 7.8%
  WBC: 117.6 x10_2/uL
  KIDNEY_L: 1 g
  KIDNEY_R: 1 g
  KIDNEY_TOTAL: 2.1 g
  LIVER: 11.8 g
  A/G: 1.9
  ALP: 856.4 IU/L
  ALT: 40.8 IU/L
  AST: 70.6 IU/L
  BUN: 20 mg/dL
  CRE: 0.6 mg/dL
  Ca: 11 mg/dL
  Cl: 104.4 meq/L
  DBIL: 0.016 mg/dL
  GLC: 200.2 mg/dL
  IP: 8.1 mg/dL
  K: 4.7 meq/L
  LDH: 77.8 IU/L
  Na: 141.2 meq/L
  PL: 151.8 mg/dL
  RALB: 3.6 g/dL
  TBIL: 0.3 mg/dL
  TC: 79.8 mg/dL
  TG: 90.6 mg/dL
  TP: 5.5 g/dL
  gamma-GTP: 1.6 IU/L
100 mg/kg, 3 h, dose level Low
  TERMINAL_BW: 224.2 g
  APTT: 16.6 s
  Bas: 0%
  Eos: 1%
  Fbg: 211.2 mg/dL
  Hb: 13.8 g/dL
  Ht: 40.6%
  Lym: 73.6%
  MCH: 21.8 pg
  MCHC: 34%
  MCV: 64 fL
  Mono: 8.4%
  Neu: 17.4%
  PT: 12.4 s
  Plat: 119.3 x10_4/uL
  RBC: 635.8 x10_4/ul
  Ret: 7.1%
  WBC: 90.5 x10_2/uL
  KIDNEY_L: 1 g
  KIDNEY_R: 1 g
  KIDNEY_TOTAL: 1.9 g
  LIVER: 10.7 g
  A/G: 1.9
  ALP: 802.2 IU/L
  ALT: 36 IU/L
  AST: 68.6 IU/L
  BUN: 15 mg/dL
  CRE: 0.7 mg/dL
  Ca: 11 mg/dL
  Cl: 103 meq/L
  DBIL: 0.012 mg/dL
  GLC: 181.6 mg/dL
  IP: 9.2 mg/dL
  K: 4.4 meq/L
  LDH: 109 IU/L
  Na: 140.6 meq/L
  PL: 128.4 mg/dL
  RALB: 3.6 g/dL
  TBIL: 0.4 mg/dL
  TC: 73 mg/dL
  TG: 58 mg/dL
  TP: 5.5 g/dL
  gamma-GTP: 1.6 IU/L
100 mg/kg, 6 h, dose level Low
  TERMINAL_BW: 229.4 g
  APTT: 17.1 s
  Bas: 0%
  Eos: 0.8%
  Fbg: 208.8 mg/dL
  Hb: 14.2 g/dL
  Ht: 42.1%
  Lym: 77.6%
  MCH: 22.1 pg
  MCHC: 33.7%
  MCV: 65.7 fL
  Mono: 8%
  Neu: 14.2%
  PT: 13.4 s
  Plat: 114.8 x10_4/uL
  RBC: 640.6 x10_4/ul
  Ret: 7.5%
  WBC: 84 x10_2/uL
  KIDNEY_L: 1 g
  KIDNEY_R: 1 g
  KIDNEY_TOTAL: 2 g
  LIVER: 10.8 g
  A/G: 1.8
  ALP: 908.4 IU/L
  ALT: 31.6 IU/L
  AST: 77.4 IU/L
  BUN: 15.6 mg/dL
  CRE: 0.5 mg/dL
  Ca: 11 mg/dL
  Cl: 105.4 meq/L
  DBIL: 0.004 mg/dL
  GLC: 187.4 mg/dL
  IP: 9.8 mg/dL
  K: 4.5 meq/L
  LDH: 123.4 IU/L
  Na: 140.4 meq/L
  PL: 126 mg/dL
  RALB: 3.5 g/dL
  TBIL: 0.4 mg/dL
  TC: 69.6 mg/dL
  TG: 54.4 mg/dL
  TP: 5.5 g/dL
  gamma-GTP: 1 IU/L
100 mg/kg, 9 h, dose level Low
  TERMINAL_BW: 222.6 g
  APTT: 18.1 s
  Bas: 0%
  Eos: 1.4%
  Fbg: 210.2 mg/dL
  Hb: 14.2 g/dL
  Ht: 42.2%
  Lym: 70%
  MCH: 21.7 pg
  MCHC: 33.7%
  MCV: 64.4 fL
  Mono: 8.6%
  Neu: 20%
  PT: 14.1 s
  Plat: 116.8 x10_4/uL
  RBC: 655.2 x10_4/ul
  Ret: 8.3%
  WBC: 79.2 x10_2/uL
  KIDNEY_L: 1 g
  KIDNEY_R: 1 g
  KIDNEY_TOTAL: 2 g
  LIVER: 9.8 g
  A/G: 2
  ALP: 756.6 IU/L
  ALT: 33.8 IU/L
  AST: 73.4 IU/L
  BUN: 15 mg/dL
  CRE: 0.6 mg/dL
  Ca: 10.7 mg/dL
  Cl: 105.2 meq/L
  DBIL: 0.018 mg/dL
  GLC: 205.4 mg/dL
  IP: 10.7 mg/dL
  K: 4.5 meq/L
  LDH: 95.6 IU/L
  Na: 142 meq/L
  PL: 100.4 mg/dL
  RALB: 3.5 g/dL
  TBIL: 0.4 mg/dL
  TC: 53.4 mg/dL
  TG: 28.4 mg/dL
  TP: 5.3 g/dL
  gamma-GTP: 1.4 IU/L
[5]
  TERMINAL_BW: 231 g
  APTT: 16.3 s
  Bas: 0%
  Eos: 1.2%
  Fbg: 214.8 mg/dL
  Hb: 14.3 g/dL
  Ht: 42.3%
  Lym: 62.4%
  MCH: 21.6 pg
  MCHC: 33.8%
  MCV: 63.8 fL
  Mono: 12.8%
  Neu: 23.8%
  PT: 12.2 s
  Plat: 117.2 x10_4/uL
  RBC: 663 x10_4/ul
  Ret: 8%
  WBC: 110 x10_2/uL
  KIDNEY_L: 1.1 g
  KIDNEY_R: 1.1 g
  KIDNEY_TOTAL: 2.1 g
  LIVER: 11.7 g
  A/G: 1.9
  ALP: 884.8 IU/L
  ALT: 38.6 IU/L
  AST: 80.4 IU/L
  BUN: 16.4 mg/dL
  CRE: 0.6 mg/dL
  Ca: 10.9 mg/dL
  Cl: 104.6 meq/L
  DBIL: 0.026 mg/dL
  GLC: 193.2 mg/dL
  IP: 7.8 mg/dL
  K: 4.6 meq/L
  LDH: 90.4 IU/L
  Na: 141.4 meq/L
  PL: 136 mg/dL
  RALB: 3.6 g/dL
  TBIL: 0.3 mg/dL
  TC: 67.6 mg/dL
  TG: 103.8 mg/dL
  TP: 5.5 g/dL
  gamma-GTP: 1.8 IU/L
